The values that follow come from patent publication US8865182B2 (priority 2009, dated 2014).

The subject of one assay is HLA-A1 supertype (A*101, A*2601, A*2902, A*3002). Type of assay: binding, human.
With “VSFDQNLDY (Influenza Virus) [SEQ ID NO: 87]”, the “# Alleles Bound” value turned out to be 2.
The same measure, in the same setting: with “GTVKDRSPY (Influenza Virus) [SEQ ID NO: 86]” the figure was 2.
Still for that read-out and setting: as for “GMIDGWYGY (Influenza Virus) [SEQ ID NO: 63]”, the figure is 2; as for “ITQFESLKLY (Influenza Virus) [SEQ ID NO: 153]”, 1.
On the same count and under the same terms, with MLASIDLKY [SEQ ID NO: 211] the figure was 4; with “NMDRAVKLY (Influenza Virus) [SEQ ID NO: 68]”, 3; with “TIASVPAPRY (Influenza Virus) [SEQ ID NO: 140]”, 2.
As for “VSHCRATEY (Influenza Virus) [SEQ ID NO: 169]”, the “# Alleles Bound” value was 1.
Still for that read-out and setting: with “KSCINRCFY (Influenza Virus) [SEQ ID NO: 89]” the figure was 1.
The same measure, in the same setting: with “LTIGECPKY (Influenza Virus) [SEQ ID NO: 62]” the figure was 3.
The same measure, in the same setting: with “SSLENFRAY (Influenza Virus) [SEQ ID NO: 166]” the figure was 1.
For KSCLPACVY [SEQ ID NO: 113], the “# Alleles Bound” value was found to be 2.
On the same count and under the same terms, as for “ASQGTKRSY (Influenza Virus) [SEQ ID NO: 110]”, the figure is 1; as for “LVSDGGPNLY (Influenza Virus) [SEQ ID NO: 213]”, 3.
Consider “IVAITDWSGY (Influenza Virus) [SEQ ID NO: 88]”, for which the “# Alleles Bound” value is listed as 1.
With “KISPLMVAY (Influenza Virus) [SEQ ID NO: 266]”, the “# Alleles Bound” value was determined as 2.
Same read-out and setting: with “YVDGFEPNGY (Influenza Virus) [SEQ ID NO: 167]” the figure was 2.
Same read-out and setting: as for “RVSKMGVDEY (Influenza Virus) [SEQ ID NO: 267]”, the figure is 1; as for “KMARLGKGY (Influenza Virus) [SEQ ID NO: 209]”, 1.
Same read-out and setting: as for “GMQIRGFVY (Influenza Virus) [SEQ ID NO: 207]”, the figure is 2.
Turning to “QWSQEPTMLY (Influenza Virus) [SEQ ID NO: 269]”, the “# Alleles Bound” value is on record as 2.
Take TFEFTSFFY [SEQ ID NO: 212]: the “# Alleles Bound” value came to 3.
Still for that read-out and setting: as for “RMFLAMITY (Influenza Virus) [SEQ ID NO: 208]”, the figure is 2; as for GTEKLTITY [SEQ ID NO: 268], 1; as for VTRREVHIY [SEQ ID NO: 165], 1.
Still for that read-out and setting: as for MLANIDLKY [SEQ ID NO: 210], the figure is 3; as for “WSQDPTMLY (Influenza Virus) [SEQ ID NO: 270]”, 4; as for “STVHYPKVY (Influenza Virus) [SEQ ID NO: 265]”, 2.
With “YSHGTGTGY (Influenza Virus) [SEQ ID NO: 206]”, the “# Alleles Bound” value worked out at 4.
On the same count and under the same terms, with “HIASMRRNY (Influenza Virus) [SEQ ID NO: 168]” the figure was 1.

Another assay has as its system HLA-A2 supertype (A*0201, A*0202, A*0203, A*0206, A*6802). Format: binding, human.
Take “FLWHVRKQV (Influenza Virus) [SEQ ID NO: 143]”: the “# Alleles Bound” value worked out at 5.
ALLKHRFEI [SEQ ID NO: 171]: the “# Alleles Bound” value is recorded as 4.
Still for that read-out and setting: with CLPACVYGL [SEQ ID NO: 114] the figure was 4.
Still for that read-out and setting: with ILGFVFTLTV [SEQ ID NO: 71] the figure was 4; with “LLTEVETYV (Influenza Virus) [SEQ ID NO: 69]”, 5; with NMLSTVLGV [SEQ ID NO: 221], 4.
On the same count and under the same terms, as for “QIRGFVYFV (Influenza Virus) [SEQ ID NO: 217]”, the figure is 4.
For the sequence “RMGTVTTEV (Influenza Virus) [SEQ ID NO: 72]”, the “# Alleles Bound” value is listed as 4.
Take “LLAWKQVLA (Influenza Virus) [SEQ ID NO: 174]”: the “# Alleles Bound” value is given as 3.
Still for that read-out and setting: with “ALSTLCLLI (Influenza Virus) [SEQ ID NO: 90]” the figure was 4; with “YINTALLNA (Influenza Virus) [SEQ ID NO: 175]”, 5; with “RLCNPLNPFV (Influenza Virus) [SEQ ID NO: 224]”, 4.

A further assay has as its system HLA-A24 supertype (A*2301, A*2402, A*2902, A*3002). Type of assay: binding, human.
Take “MYQKCCTLF (Influenza Virus) [SEQ ID NO: 251]”: the “# Alleles Bound” value came out at 3.
On the same count and under the same terms, as for “FFENKSETW (Influenza Virus) [SEQ ID NO: 193]”, the figure is 2.
In the case of SYINRTGTF [SEQ ID NO: 247], the “# Alleles Bound” value was 3.
Still for that read-out and setting: as for “LYASPQLEGF (Influenza Virus) [SEQ ID NO: 194]”, the figure is 2.
The same measure, in the same setting: with “IYRRFKYGL (Influenza Virus) [SEQ ID NO: 85]” the figure was 2; with “KFEEIRWLI (Influenza Virus) [SEQ ID NO: 158]”, 2; with “SWPDGANINF (Influenza Virus) [SEQ ID NO: 101]”, 2.
Still for that read-out and setting: with MFLAMITYI [SEQ ID NO: 245] the figure was 2; with “HMMIWHSNL (Influenza Virus) [SEQ ID NO: 129]”, 3.
As to “FMQALQLLF (Influenza Virus) [SEQ ID NO: 159]”, the “# Alleles Bound” value is on record as 3.
In the case of “EYIMKGVYI (Influenza Virus) [SEQ ID NO: 192]”, the “# Alleles Bound” value is given as 2.
On to FYIQMCTEL [SEQ ID NO: 128], for which the “# Alleles Bound” value is recorded as 2.
As to SYLIRALTL [SEQ ID NO: 244], the “# Alleles Bound” value is on record as 2.
On the same count and under the same terms, with WMACHSAAF [SEQ ID NO: 131] the figure was 2; with “VFVIREPFI (Influenza Virus) [SEQ ID NO: 97]”, 2.
On the same count and under the same terms, with “FYRYGFVANF (Influenza Virus) [SEQ ID NO: 248]” the figure was 2; with “CFMYSDFHF (Influenza Virus) [SEQ ID NO: 190]”, 3; with “LWILDRLFF (Influenza Virus) [SEQ ID NO: 84]”, 3.
Same read-out and setting: with “LYNKMEFEPF (Influenza Virus) [SEQ ID NO: 297]” the figure was 2; with “HYPKVYKTYF (Influenza Virus) [SEQ ID NO: 296]”, 2.

The next assay has as its system HLA-B44 supertype (B*1801, B*4001, B*4002, B*4403, B*4501). Type of assay: binding, human.
On to “FEQITFMQA (Influenza Virus) [SEQ ID NO: 161]”, for which the “# Alleles Bound” value is recorded as 5.
Still for that read-out and setting: as for “LETLILLRAF (Influenza Virus) [SEQ ID NO: 150]”, the figure is 4; as for “IESVNNAVV (Influenza Virus) [SEQ ID NO: 264]”, 6.
With “AESRKLLLIV (Influenza Virus) [SEQ ID NO: 204]”, the “# Alleles Bound” value is recorded as 3.
Consider “HENRMVLAST (Influenza Virus) [SEQ ID NO: 77]”, for which the “# Alleles Bound” value came out at 4.
Still for that read-out and setting: with GERQNATEI [SEQ ID NO: 135] the figure was 4; with “DEALKMTIA (Influenza Virus) [SEQ ID NO: 148]”, 4.
Same read-out and setting: with “PELRSLSSWI (Influenza Virus) [SEQ ID NO: 199]” the figure was 4; with “RELVRKTRFL (Influenza Virus) [SEQ ID NO: 307]”, 4.
The same measure, in the same setting: with “FERATIMAAF (Influenza Virus) [SEQ ID NO: 139]” the figure was 5.
Take “SEFNKACELT (Influenza Virus) [SEQ ID NO: 200]”: the “# Alleles Bound” value amounted to 5.
Same read-out and setting: as for CEKLEQSGL [SEQ ID NO: 262], the figure is 4.
Still for that read-out and setting: as for SEQAAEAMEV [SEQ ID NO: 78], the figure is 6.
Turning to “MEVASQARQM (Influenza Virus) [SEQ ID NO: 79]”, the “# Alleles Bound” value is given as 5.
The same measure, in the same setting: as for FEDLRVSSF [SEQ ID NO: 137], the figure is 5; as for “LEVEQEIRT (Influenza Virus) [SEQ ID NO: 162]”, 4; as for “GEETIEERF (Influenza Virus) [SEQ ID NO: 198]”, 5.
Same read-out and setting: as for “FERATIMAA (Influenza Virus) [SEQ ID NO: 138]”, the figure is 4.
The same measure, in the same setting: as for “SETLQRFAW (Influenza Virus) [SEQ ID NO: 152]”, the figure is 3.
“IEKIRPLLI (Influenza Virus) [SEQ ID NO: 263]”: the “# Alleles Bound” value was 5.
For the sequence “KEDKRYGPAL (Influenza Virus) [SEQ ID NO: 309]”, the “# Alleles Bound” value came to 6.
Same read-out and setting: as for “EECSCYPDY (Influenza Virus) [SEQ ID NO: 107]”, the figure is 3; as for TEVETYVLSI [SEQ ID NO: 76], 4.
Same read-out and setting: as for GEISPLPSL [SEQ ID NO: 151], the figure is 6.
For the sequence “EEVRHRLKI (Influenza Virus) [SEQ ID NO: 160]”, the “# Alleles Bound” value amounted to 5.
On the same count and under the same terms, as for AESRKLLLI [SEQ ID NO: 203], the figure is 4; as for “MEFSLTDPRL (Influenza Virus) [SEQ ID NO: 201]”, 6; as for “YEAIEECLI (Influenza Virus) [SEQ ID NO: 205]”, 4.
On the same count and under the same terms, as for “LEEMSRDWLM (Influenza Virus) [SEQ ID NO: 149]”, the figure is 4; as for “RESRNPGNA (Influenza Virus) [SEQ ID NO: 136]”, 4; as for “EECSCYPRY (Influenza Virus) [SEQ ID NO: 108]”, 4.
Same read-out and setting: as for “WEKYCVLEI (Influenza Virus) [SEQ ID NO: 202]”, the figure is 5.
Take QEIRTFSFQL [SEQ ID NO: 163]: the “# Alleles Bound” value worked out at 4.
Still for that read-out and setting: as for “FEMIWDPNG (Influenza Virus) [SEQ ID NO: 109]”, the figure is 3.
